Experimental data reported in patent US20140166543A1, “SYSTEM AND PROCESS FOR RECOVERING BITUMEN FROM OIL SANDS” (Shell Oil Company, priority 2012, published 2014).

Assay: Viscosity of crude blended with dimethyl sulfide (rheometer)
Format: physicochemical
Experimental: The quality of dimethyl sulfide as an oil recovery agent based on the crude oil viscosity lowering properties of dimethyl sulfide was evalulated. Three crude oils having widely disparate viscosity characteristics—an African Waxy crude, a Middle Eastern asphaltic crude, and a Canadian asphaltenic crude—were blended with dimethyl sulfide. A control sample of each crude was prepared containing no dimethyl sulfide, and samples of each crude were prepared and blended with dimethyl sulfide to prepare crude samples containing increasing concentrations of dimethyl sulfide. Each sample of each of the crudes was heated to 60° C. to dissolve any waxes therein and to permit weighing of a homogeneous liquid, weighed, allowed to cool overnight, then blended with a selected quantity of dimethyl sulfide. The samples of the crude/dimethyl sulfide blend were then heated to 60° C. and mixed to ensure homogeneous blending of the dimethyl sulfide in the samples. Absolute (dynamic) viscosity measurements of each of the samples were taken using rheometer and closed cup sensor assembly. Viscosity measurements of each of the samples of the West African waxy crude and the Middle Eastern asphaltic crude were taken at 20° C., 40° C., 60° C., 80° C., and then again at 20° C. after cooling from 80° C., where the second measurement at 20° C. is taken to measure the viscosity without the presence of waxes since wax formation occurs slowly enough to permit viscosity measurement at 20° C. without the presence of wax. Viscosity measurements of each of the samples of the Canadian asphaltenic crude were taken at 5° C., 10° C., 20° C., 40° C., 60° C., 80° C., The measured viscosities for each of the crudes are shown in Tables 3, 4, and 5 below.

## CSC [Dimethyl Sulfide, dimethyl sulfide]
DMS 1.43 wt. %, 20° C.
  Viscosity of Topped Canadian asphaltenic Crude: 212525 mPa s
DMS 1.43 wt. %, 40° C.
  Viscosity of Topped Canadian asphaltenic Crude: 14721 mPa s
DMS 1.43 wt. %, 60° C.
  Viscosity of Topped Canadian asphaltenic Crude: 2209 mPa s
DMS 1.43 wt. %, 80° C.
  Viscosity of Topped Canadian asphaltenic Crude: 538 mPa s
DMS 2.07 wt. %, 20° C.
  Viscosity of Topped Canadian asphaltenic Crude: 134880 mPa s
DMS 2.07 wt. %, 40° C.
  Viscosity of Topped Canadian asphaltenic Crude: 10523 mPa s
DMS 2.07 wt. %, 60° C.
  Viscosity of Topped Canadian asphaltenic Crude: 1747 mPa s
DMS 2.07 wt. %, 80° C.
  Viscosity of Topped Canadian asphaltenic Crude: 427 mPa s
DMS 4.87 wt. %, 20° C.
  Viscosity of Topped Canadian asphaltenic Crude: 28720 mPa s
DMS 4.87 wt. %, 40° C.
  Viscosity of Topped Canadian asphaltenic Crude: 3235 mPa s
DMS 4.87 wt. %, 60° C.
  Viscosity of Topped Canadian asphaltenic Crude: 985 mPa s
DMS 4.87 wt. %, 80° C.
  Viscosity of Topped Canadian asphaltenic Crude: 328 mPa s
DMS 8.01 wt. %, 20° C.
  Viscosity of Topped Canadian asphaltenic Crude: 5799 mPa s
DMS 8.01 wt. %, 40° C.
  Viscosity of Topped Canadian asphaltenic Crude: 982 mPa s
DMS 8.01 wt. %, 60° C.
  Viscosity of Topped Canadian asphaltenic Crude: 275 mPa s
DMS 8.01 wt. %, 80° C.
  Viscosity of Topped Canadian asphaltenic Crude: 106 mPa s
DMS 9.80 wt. %, 20° C.
  Viscosity of Topped Canadian asphaltenic Crude: 2760 mPa s
DMS 9.80 wt. %, 40° C.
  Viscosity of Topped Canadian asphaltenic Crude: 571 mPa s
DMS 9.80 wt. %, 60° C.
  Viscosity of Topped Canadian asphaltenic Crude: 173 mPa s
DMS 9.80 wt. %, 80° C.
  Viscosity of Topped Canadian asphaltenic Crude: 73 mPa s
DMS 14.81 wt. %, 5° C.
  Viscosity of Topped Canadian asphaltenic Crude: 1794 mPa s
DMS 14.81 wt. %, 10° C.
  Viscosity of Topped Canadian asphaltenic Crude: 1155 mPa s
DMS 14.81 wt. %, 20° C.
  Viscosity of Topped Canadian asphaltenic Crude: 548 mPa s
DMS 14.81 wt. %, 40° C.
  Viscosity of Topped Canadian asphaltenic Crude: 159 mPa s
DMS 14.81 wt. %, 60° C.
  Viscosity of Topped Canadian asphaltenic Crude: 64 mPa s
DMS 14.81 wt. %, 80° C.
  Viscosity of Topped Canadian asphaltenic Crude: 32 mPa s
DMS 19.78 wt. %, 20° C.
  Viscosity of Topped Canadian asphaltenic Crude: 188 mPa s
DMS 19.78 wt. %, 40° C.
  Viscosity of Topped Canadian asphaltenic Crude: 69 mPa s
DMS 19.78 wt. %, 60° C.
  Viscosity of Topped Canadian asphaltenic Crude: 33 mPa s
DMS 19.78 wt. %, 80° C.
  Viscosity of Topped Canadian asphaltenic Crude: 19 mPa s
DMS 29.88 wt. %, 5° C.
  Viscosity of Topped Canadian asphaltenic Crude: 113 mPa s
DMS 29.88 wt. %, 10° C.
  Viscosity of Topped Canadian asphaltenic Crude: 81 mPa s
DMS 29.88 wt. %, 20° C.
  Viscosity of Topped Canadian asphaltenic Crude: 51 mPa s
DMS 29.88 wt. %, 40° C.
  Viscosity of Topped Canadian asphaltenic Crude: 22 mPa s
DMS 29.88 wt. %, 60° C.
  Viscosity of Topped Canadian asphaltenic Crude: 13 mPa s
DMS 29.88 wt. %, 80° C.
  Viscosity of Topped Canadian asphaltenic Crude: 8 mPa s
DMS 39.61 wt. %, 5° C.
  Viscosity of Topped Canadian asphaltenic Crude: 23 mPa s
DMS 39.61 wt. %, 10° C.
  Viscosity of Topped Canadian asphaltenic Crude: 20 mPa s
DMS 39.61 wt. %, 20° C.
  Viscosity of Topped Canadian asphaltenic Crude: 14 mPa s
DMS 39.61 wt. %, 40° C.
  Viscosity of Topped Canadian asphaltenic Crude: 8 mPa s
DMS 39.61 wt. %, 60° C.
  Viscosity of Topped Canadian asphaltenic Crude: 6 mPa s
DMS 39.61 wt. %, 80° C.
  Viscosity of Topped Canadian asphaltenic Crude: 4 mPa s
